Patent US20260337245A1, “POLYPEPTIDE OR ANALOG THEREOF AND USE THEREOF” (Shenzhen Bay Laboratory, priority 2024, published 2026)
Starred links: 1 amine or outer side, 2 acyl side, 3 side chain; linkers in the order of their positions; H or OH if unused. Positions of bridges follow the written chain, without caps; N, C: chain ends. Non-standard residues stand in square brackets, D forms with d. Residues, ends and D or L forms follow the SMILES beside them. X1 = O=C(O)CCCCCCCCCCCCCCCCCCC(=O)N[C@@H](CCCCNC(=O)COCCOCCNC(=O)COCCOCCNC(=O)CCC(=O)N(CCNC(=O)C[*:1])CCNC(=O)C[*:2])C(=O)O; Hyp = O=C(O)[C@@H]1C[C@@H](O)CN1; αMeK = C[C@](N)(CCCCN)C(=O)O; Aib = CC(C)(N)C(=O)O

Experiments:
[1] = background, in words; cited from earlier work
[2] = background, in words; cited from earlier work; remark: listed apart in the source
[3] = Pharmacokinetic evaluation in Cynomolgus macaques; assay type: in vivo, adult male Cynomolgus macaques; conditions: cynomolgus monkey, plasma, 0.2 mg/kg
Description: 2. The pharmacokinetic behaviors of the polypeptide derivatives (i.e., AMY-001 to AMY-041) prepared in Example 1 and Example 2 in Cynomolgus macaques were tested.
Each polypeptide derivatives (i.e., AMY-001 to AMY-041) was respectively administered to adult male Cynomolgus macaques as a single injection via subcutaneous injection (S.C., 0.2 mg/kg, with PBS as a medicament vehicle, a concentration of 0.2 mg/mL, […], with PBS as a medicament vehicle, a concentration of 0.2 mg/mL, and an administration volume of 1 mL), respectively. After administration, whole blood samples were respectively collected from the jugular vein or other appropriate veins at selected time points. 0.2 mL of blood was collected and placed in a labeled EDTA-K2 anticoagulant tube. The tube was gently inverted up and down to ensure thorough mixing of the anticoagulant (EDTA-K2) with the blood, immediately placed on wet ice and centrifuged as soon as possible to separate plasma, and the centrifugation conditions were set to 4° C., 6800 g, and 6 minutes. Plasma samples were stored in a refrigerator at a temperature not exceeding −20° C. for subsequent analysis.
(§1) Under yellow light conditions in an ice water bath, (1) except for the blank sample, 300 μL of precipitant containing internal standard was added to a 96-well plate containing 20 μL of a standard curve sample, a quality control sample or an unknown sample; 300 μL of acetonitrile was added to the blank sample; (2) vortex mixing; (3) centrifugation; (4) 150 μL of supernatant was taken and added into a new 96-well plate, and then mixed well with 150 μL of ultrapure water; and (5) the above samples were quantitatively analyzed by using LC-MS analysis. Gradient elution was performed on a XB—C18 chromatographic column (2.1*100 mm, 3 μm), with the mobile phase as follows: mobile phase A=0.1% formic acid-water; and mobile phase B=acetonitrile. Pharmacokinetic parameters were calculated using Phoenix WinNonlin software.

[4] = Pharmacokinetic evaluation in SD rats; assay type: in vivo, male SD rat; conditions: plasma, rat
Description: 1. The pharmacokinetic behaviors of the polypeptide derivatives (i.e., AMY-001 to AMY-041) prepared in Example 1 and Example 2 in SD rats were tested.
Each polypeptide derivative (i.e., AMY-001 to AMY-041) was administered to male SD rat as a single injection via subcutaneous injection (SC, 3 mg/kg, with PBS as a medicament vehicle, a concentration of 1.5 mg/mL, and an administration volume of 2 mL) and intravenous injection (IV, 1 mg/kg, with PBS as a medicament vehicle, a concentration of 0.5 mg/mL, and an administration volume of 2 mL), respectively. After administration, whole blood samples were respectively collected from the jugular vein or other appropriate veins at selected time points. 0.2 mL of blood was collected and placed in a labeled EDTA-K2 anticoagulant tube. The tube was gently inverted up and down to ensure thorough mixing of the anticoagulant (EDTA-K2) with the blood, immediately placed on wet ice and centrifuged as soon as possible to separate plasma, and the centrifugation conditions were set to 4° C., 6800 g, and 6 minutes. Plasma samples were stored in a refrigerator at a temperature not exceeding −20° C. until subsequent analysis.
as §1, with “(5) The” for “(5) the”, “A=0.1% (volume percentage, v/v)” for “A=0.1%”

Row | AUC(0-inf) ([3]; IV (0.2 mpk)) [µg·h/mL] | clearance ([3]; IV (0.2 mpk)) [mL/h/kg] | half-life ([3]; IV (0.2 mpk)) [h] | AUC(0-inf) ([3]; SC (0.2 mpk)) [µg·h/mL] | Cmax ([3]; SC (0.2 mpk)) [ng/mL] | Tmax ([3]; SC (0.2 mpk)) [h] | bioavailability ([3]; SC (0.2 mpk)) [%] | half-life ([3]; SC (0.2 mpk)) [h] | AUC(0-inf) ([4]; 1 mg/kg, IV (1 mpk)) [µg·h/mL] | clearance ([4]; 1 mg/kg, IV (1 mpk)) [mL/h/kg] | half-life ([4]; 1 mg/kg, IV (1 mpk)) [h] | AUC(0-inf) ([4]; 3 mg/kg, SC (3 mpk)) [µg·h/mL] | Cmax ([4]; 3 mg/kg, SC (3 mpk)) [ng/mL] | Tmax ([4]; 3 mg/kg, SC (3 mpk)) [h] | bioavailability ([4]; 3 mg/kg, SC (3 mpk)) [%] | half-life ([4]; 3 mg/kg, SC (3 mpk)) [h] | SMILES | in-vivo half-life [1] | stability [2]
1 |  |  |  |  |  |  |  |  |  |  |  |  |  |  |  |  | CC(C)C[C@H](NC(=O)[C@H](CCCCN)NC(=O)CNC(=O)[C@H](CC(C)C)NC(=O)[C@@H](NC(=O)[C@@H]1CSSC[C@H](N)C(=O)N[C@@H](CO)C(=O)N[C@@H](CC(N)=O)C(=O)N[C@@H](CC(C)C)C(=O)N[C@@H](CO)C(=O)N[C@@H]([C@@H](C)O)C(=O)N1)C(C)C)C(=O)N[C@@H](CO)C(=O)N[C@@H](CCC(N)=O)C(=O)N[C@@H](CCC(=O)O)C(=O)N[C@@H](CC(C)C)C(=O)N[C@@H](Cc1c[nH]cn1)C(=O)N[C@@H](CCCCN)C(=O)N[C@@H](CC(C)C)C(=O)N[C@@H](CCC(N)=O)C(=O)N[C@H](C(=O)N[C@@H](Cc1ccc(O)cc1)C(=O)N1CCC[C@H]1C(=O)N[C@@H](CCCNC(=N)N)C(=O)N[C@H](C(=O)N[C@@H](CC(N)=O)C(=O)N[C@H](C(=O)NCC(=O)N[C@@H](CO)C(=O)NCC(=O)N[C@H](C(=O)N1CCC[C@H]1C(N)=O)[C@@H](C)O)[C@@H](C)O)[C@@H](C)O)[C@@H](C)O [sCT] | short in-vivo half-life | poor stability
2 | 942 | 0.217 | 146 | 514 | 2260 | 24 | 54.5 | 143 | 286 | 3.52 | 20.5 | 567 | 11100 | 24 | 66.1 | 20.6 | CC(=O)N[C@@H](C)C(=O)N[C@@H](CO)C(=O)N[C@@H](Cc1c[nH]cn1)C(=O)N[C@@H](CC(C)C)C(=O)N[C@@H](CO)C(=O)N[C@H](C(=O)N[C@@H](C)C(=O)N[C@H]1CSCC(=O)NCCN(C(=O)CCC(=O)NCCOCCOCC(=O)NCCOCCOCC(=O)NCCCC[C@H](NC(=O)CCCCCCCCCCCCCCCCCCC(=O)O)C(=O)O)CCNC(=O)CSC[C@@H](C(=O)N[C@@H](CC(C)C)C(=O)N[C@@H](Cc2c[nH]cn2)C(=O)N[C@@](C)(CCCCN)C(=O)N[C@@H](CC(C)C)C(=O)NC(C)(C)C(=O)N[C@@H](CC(=O)O)C(=O)N[C@@H](Cc2ccc(O)cc2)C(=O)N2CCC[C@H]2C(=O)N[C@@H](CCC(N)=O)C(=O)N[C@H](C(=O)N[C@@H](CC(=O)O)C(=O)N[C@H](C(=O)NCC(=O)N[C@@H](C)C(=O)NCC(=O)N[C@@H](CO)C(=O)N2C[C@H](O)C[C@H]2C(N)=O)C(C)C)[C@@H](C)O)NC(=O)[C@H](C)NC(=O)[C@H](CO)NC(=O)[C@H](CC(C)C)NC(=O)[C@H](CCCNC(=N)N)NC(=O)CNC(=O)[C@H](CC(C)C)NC1=O)[C@@H](C)O [AMY-015, Ac-ASHLSTACLGRLSACLH-(αMeK)-L-Aib-DYPQTDVGAGS-Hyp-NH2] (Ac-ASHLSTACLGRLSACLH[αMeK]L[Aib]DYPQTDVGAGS[Hyp]-NH2; linker 8-15 via X1) |  | 
